Columns and labels:
[1] = test system: 36,000 (transport protein in the cytoplasm); assay: Photoaffinity labeling of bile acid-binding proteins in hepatocytes in the presence of competitor; design: species or system rat
From the text: (§1) The molecules of these physiologically relevant binding proteins for bile acids were identified and characterized by the method of photoaffinity labeling. The principle of this method consists in binding a photoreactive radioactively labeled bile acid derivative to the physiological binding protein analogously to the natural bile acids. By irradiation with UV light, highly reactive chemical intermediates such as carbenes, nitrenes or radicals are generated in this derivative which, owing to their high reactivity, immediately react with the binding proteins by addition to double bonds or insertion in single bonds and bind covalently to these. By means of this covalent linkage of the radioactive bile acid derivative with the binding protein, the binding proteins are then also radioactively labeled and can be identified by a separation of the various proteins of a liver cell, for example by electrophoresis, and their molecular weight determined.
(§2) If such a photoaffinity labeling is carried out in the presence of a substance X' which also binds to the bile acid-binding proteins, then X' will compete with the radioactive bile acid derivative for binding to the bile acid-binding proteins; the radioactive labeling of the corresponding binding proteins will thus be lower in the presence of X'.
(§3) 3.6×10^6 freshly isolated hepatocytes from rat liver (about 3 mg of protein) in 1.5 ml of buffer I (118 mM NaCl, 4.74 mM KCl, 0.59 mM KH2 PO4, 0.59 mM Na2 HPO4 ×2 H2 O, 1.185 mM MgCl2 ×6 H2 O, 24.87 mM NaHCO3, 1.25 mM CaCl2, 5.5 mM D-glucose, pH 7.35, buffer aerated with carbogen (95% O2 /5% CO2) for 1 h) were incubated at 37° C. […] in the dark with 1.25 μM (25 μCi) of (7,7-azo-3α-12α-dihydroxy-5β[3-^3 H]cholan-24-oyl)-2-aminoethanesulfonic acid in the absence or in the presence of 250 μM "Example 3" and then irradiated at […] with 16 RPR 3500 Å-lamps for 5 min in a Rayonet RPR-100 photoreactor. The cell suspension was then diluted with 10 ml of ice-cold buffer I and the cells sedimented by centrifuging at 1000×g for 3 minutes. The cells were resuspended again in 10 ml of buffer I and again sedimented by centrifugation. The precipitate was taken up in 600 μl of tris/HCl buffer (pH 6.8)/2% sodium dodecylsulfate (SDS)/5% 2-mercaptoethanol/10% glycerol/0.001% Bromophenol blue, heated to 90° C. for 5 min and centrifuged at 40,000×g for 20 min. The clear supernatant containing the solubilized proteins was used subsequently. In each case 100 μl (500 μg of protein) were applied to discontinuous SDS slab gels (200×170×2.7 mm, total acrylamide concentration 12%) and the proteins were separated by electrophoresis at a voltage of 50 V. After the electrophoresis, the gels were fixed in 12.5% strength trichloroacetic acid solution and stained using 0.08% Serva blue R 250 solution in 25% ethanol/8% acetic acid/67% water. After destaining, the gels were equilibrated in 1M sodium salicylate solution in 70% methanol for 20 min and then dried. The distribution of the radioactively labeled proteins was determined by the fluorographic method by placing the dried gels on Kodak-X-Omat AR X-ray films and exposing at -80° C. for 14 d. The blackened films were measured by densitometry. The decrease in the labeling of the various bile acid-binding proteins owing to the presence of "Example 3" during the photoaffinity labeling is given in % relative to the control.

[2] = test system: 54,000 (membrane transport protein); assay: as above; design: species or system rat
From the text: as §1, §2, §3

[3] = test system: 48,000 (membrane transport protein); assay: as above; design: species or system rat
From the text: as §1, §2, §3

[4] = test system: 33,000 (binding protein in mitochondria); assay: as above; design: species or system rat
From the text: as §1, §2, §3

[5] = test system: 43,000 (cytoskeletal protein); assay: as above; design: species or system rat
From the text: as §1, §2, §3

67,000 (albumin) = target: T1, 67,000 (albumin) (Rattus norvegicus, UniProt P02770); assay: as above; conditions: decrease in labeling relative to control
T1 construct: freshly isolated hepatocytes from rat liver; endogenous in cells; host or cells: freshly isolated rat hepatocytes
From the text: as §1
If such a photoaffinity labeling is carried out in the presence of a substance X' which also binds to the bile acid-binding proteins, then X' will compete with the radioactive bile acid derivative for binding to the bile acid-binding proteins; the radioactive labeling of the corresponding binding proteins will thus be lower in the presence of X'. […]

liver cell proteins = assay: Alkylation of liver cell proteins in freshly isolated hepatocytes; format: cell-based, rat
Method: Freshly isolated hepatocytes (2×10^6) in 2 ml of buffer I were incubated at 37° C. with 30 μCi of "Example 5". After 10, 30, 40 and 60 min, in each case 500 μl of cell suspension (500 μg of protein) were removed and diluted with 10 ml of ice-cold buffer I. After centrifuging at 1000×g for 3 minutes, the precipitate was resuspended in 10 ml of buffer I and the suspension was centrifuged again. The cell precipitates were each dissolved in 100 μl of 62.5 mM tris/HCl buffer (pH 6.8)/2% SDS/5% 2-mercaptoethanol/10% glycerol/0.001% Bromophenol blue, centrifuged at 48,000×g for 30 min and the clear supernatants were applied to discontinuous SDS slab gels (200×170×2.7 mm). After the electrophoretic separation, the gels were fixed and stained. To determine the distribution of the radioactivity, the individual gel tracks were divided into 2 mm sections, the proteins were digested with Biolute S by incubation with 0.5 ml, and after addition of 5 ml of Quickszint 501 scintillator, the samples were measured in a liquid scintillation counter.

[6] = test system: freshly isolated hepatocytes; assay: Metabolism by freshly isolated hepatocytes; format: in vitro ADME, rat; design: Distribution of the radioactivity: Metabolite 1 Rf = 0.32 / Distribution of the radioactivity: Metabolite 3 Rf = 0.21 (not identified): concentration or dose not given beside the values
Method: Freshly isolated hepatocytes (1.8×10^6) in 750 μl of buffer I were incubated at 37° C. with 5.5 μCi of "Example 5". After 10, 20, 30, 40 and 60 min, 100 μl of the cell suspension were removed in each case, diluted with 10 ml of ice-cold buffer I and centrifuged at 1000×g for 5 min. The cell precipitate was treated twice with 100 μl of chloroform/methanol solution (1/1, v/v) each time to extract the bile acid. The organic extracts were evaporated in a stream of N2, and the residues were each taken up in 20 μl of dioxane and applied to HPTLC thin layer plates. After developing the chromatogram using n-butanol/acetic acid/water (9:1:2, v/v/v) as the eluent, the plate was dried, sprayed with 1M sodium salicylate solution in methanol and, after drying, placed on a Kodak-X-Omat AR X-ray film. After exposure at -80° C. for 1 week, the film was developed and the distribution of the radioactivity was determined by densitometry. The distribution of the radioactivity in the individual metabolites is given in %.

T1 sequence (P02770 25-608): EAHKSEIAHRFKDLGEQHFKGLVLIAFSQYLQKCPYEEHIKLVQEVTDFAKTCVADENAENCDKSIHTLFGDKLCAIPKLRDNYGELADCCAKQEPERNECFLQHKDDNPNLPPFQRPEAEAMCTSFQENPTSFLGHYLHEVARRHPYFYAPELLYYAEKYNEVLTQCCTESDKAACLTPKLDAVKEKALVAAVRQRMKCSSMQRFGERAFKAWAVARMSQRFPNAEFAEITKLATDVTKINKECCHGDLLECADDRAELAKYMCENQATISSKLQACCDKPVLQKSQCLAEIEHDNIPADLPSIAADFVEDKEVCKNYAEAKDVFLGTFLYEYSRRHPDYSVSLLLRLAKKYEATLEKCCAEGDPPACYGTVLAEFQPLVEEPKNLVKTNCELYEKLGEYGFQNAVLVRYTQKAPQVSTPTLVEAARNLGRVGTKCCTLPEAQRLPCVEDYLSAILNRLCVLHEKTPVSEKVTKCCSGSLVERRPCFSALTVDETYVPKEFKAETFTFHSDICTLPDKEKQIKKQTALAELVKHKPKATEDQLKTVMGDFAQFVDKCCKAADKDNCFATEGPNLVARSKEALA

For `C[C@H](CCC(=O)NCCS(=O)(=O)O)[C@H]1CC[C@H]2[C@@H]3CC[C@@H]4C[C@H](OC(=O)CCCc5ccc(N(CCCl)CCCl)cc5)CC[C@]4(C)[C@H]3CC(=O)[C@]12C` [Example 3], the “% Inhibition of bile acid-binding proteins by 250 μM "Example 3"” value (shortened to “% Inhibition”) [1] was 98.1%, the “% Inhibition” value [2] was 89.6% and the “% Inhibition” value [3] was 88.8%. For the same compound, the “% Inhibition” value [4] was 93.2%, the “% Inhibition” value [5] was 88.1% and the “% Inhibition” value (67,000 (albumin)) was 90.5%.

`[3H]C1(O)C[C@H]2[C@@H](CC[C@@H]3C[C@H](OC(=O)CCCc4ccc(N(CCCl)CCCl)cc4)CC[C@@]32C)[C@@H]2CC[C@H]([C@H](C)CCC(=O)NCCS(=O)(=O)O)[C@]21C` (stereo partly shown) [Example 5] was tested, and the “Radioactive labeling of liver cell proteins” value (liver cell proteins; in membranes, cytoplasm and cell organelles, result in words) was “leads to a radioactive labeling of liver cell proteins”, the “Radioactivity in labeled liver proteins” value (liver cell proteins; incubation 0 min) was less than 30 cpm and the “Radioactivity in labeled liver proteins” value (liver cell proteins; incubation 10 min, 48 kDa) was 408 cpm. The “Radioactivity in labeled liver proteins” value (liver cell proteins; incubation 10 min, 67 kDa) was 102 cpm, the “Radioactivity in labeled liver proteins” value (liver cell proteins; incubation 30 min, 28 kDa) was 2190 cpm and the “Radioactivity in labeled liver proteins” value (liver cell proteins; incubation 30 min, 33 kDa) was 1116 cpm. The “Radioactivity in labeled liver proteins” value (liver cell proteins; incubation 30 min, 42 kDa) was 1711 cpm, the “Radioactivity in labeled liver proteins” value (liver cell proteins; incubation 30 min, 48 kDa) was 1375 cpm and the “Radioactivity in labeled liver proteins” value (liver cell proteins; incubation 30 min, 54 kDa) was 1811 cpm. For the same compound, the “Radioactivity in labeled liver proteins” value (liver cell proteins; incubation 30 min, 122 kDa) was 1064 cpm, the “Radioactivity in labeled liver proteins” value (liver cell proteins; incubation 40 min, 28 kDa) was 2682 cpm and the “Radioactivity in labeled liver proteins” value (liver cell proteins; incubation 40 min, 33 kDa) was 1474 cpm. For the same compound, the “Radioactivity in labeled liver proteins” value (liver cell proteins; incubation 40 min, 42 kDa) was 2650 cpm, the “Radioactivity in labeled liver proteins” value (liver cell proteins; incubation 40 min, 48 kDa) was 2420 cpm and the “Radioactivity in labeled liver proteins” value (liver cell proteins; incubation 40 min, 54 kDa) was 2385 cpm. The “Radioactivity in labeled liver proteins” value (liver cell proteins; incubation 40 min, 122 kDa) was 1549 cpm, the “Radioactivity in labeled liver proteins” value (liver cell proteins; incubation 60 min, 28 kDa) was 2163 cpm and the “Radioactivity in labeled liver proteins” value (liver cell proteins; incubation 60 min, 42 kDa) was 1725 cpm. For the same compound, the “Radioactivity in labeled liver proteins” value (liver cell proteins; incubation 60 min, 48 kDa) was 2074 cpm, the “Radioactivity in labeled liver proteins” value (liver cell proteins; incubation 60 min, 54 kDa) was 1949 cpm and the “Radioactivity in labeled liver proteins” value (liver cell proteins; incubation 60 min, 122 kDa) was 997 cpm. The “Distribution of the radioactivity: "Example 5" Rf = 0.49” value (shortened to “Distribution … "Example 5" Rf = 0.49”) ([6]; incubation 10 min) was 31.34%, the “Distribution of the radioactivity: Metabolite 1 Rf = 0.32” value (“Distribution … Metabolite 1 Rf = 0.32” below) ([6]; incubation 10 min) was 33.79% and the “Distribution of the radioactivity: Metabolite 2 Rf = 0.36” value (shortened to “Distribution … Metabolite 2 Rf = 0.36”) ([6]; incubation 10 min) was 38.03%. For the same compound, the “Distribution of the radioactivity: Metabolite 3 Rf = 0.21 (not identified)” value (“Distribution … (not identified)” for short) ([6]; incubation 10 min) was 5.62%, the “Distribution … "Example 5" Rf = 0.49” value ([6]; incubation 20 min) was 26.51% and the “Distribution … Metabolite 1 Rf = 0.32” value ([6]; incubation 20 min) was 29.49%. For the same compound, the “Distribution … Metabolite 2 Rf = 0.36” value ([6]; incubation 20 min) was 32.25%, the “Distribution … (not identified)” value ([6]; incubation 20 min) was 11.74% and the “Distribution … "Example 5" Rf = 0.49” value ([6]; incubation 30 min) was 23.76%. The “Distribution … Metabolite 1 Rf = 0.32” value ([6]; incubation 30 min) was 29.88%, the “Distribution … Metabolite 2 Rf = 0.36” value ([6]; incubation 30 min) was 34.18% and the “Distribution … (not identified)” value ([6]; incubation 30 min) was 12.16%. For the same compound, the “Distribution … "Example 5" Rf = 0.49” value ([6]; incubation 40 min) was 13.78%, the “Distribution … Metabolite 1 Rf = 0.32” value ([6]; incubation 40 min) was 33.52% and the “Distribution … Metabolite 2 Rf = 0.36” value ([6]; incubation 40 min) was 40.93%. The “Distribution … (not identified)” value ([6]; incubation 40 min) was 11.75%, the “Distribution … "Example 5" Rf = 0.49” value ([6]; incubation 60 min) was 11.00% and the “Distribution … Metabolite 1 Rf = 0.32” value ([6]; incubation 60 min) was 33.7%. The “Distribution … Metabolite 2 Rf = 0.36” value ([6]; incubation 60 min) was 45.7%, the “Distribution … (not identified)” value ([6]; incubation 60 min) was 10.3% and the “Absorption into the cell interior by the liver cells” value ([6]; result in words) was “is absorbed into the cell interior by the liver cells”. For the same compound, the “Hydrolytic cleavage into free chlorambucil and bile acid” value ([6]; result in words) was “rapidly cleaved hydrolytically”.
